# Data published in patent US8580847B2, “Antrocin containing pharmaceutical compositions for inhibiting cancer cells” (Chaoyang University of Technology, priority 2010, dated 2013).
# What was measured:
# [1] = tested on: MDA-MB-231 human breast cancer cells; test: SRB cytotoxicity assay, MDA-MB-231; format: cell-based
# Method: (§1) MCF-7 and MDA-MB-231 breast tumor cell lines came from a pleural effusion of patients with invasive breast carcinoma. The MCF-10A cell line is a non-tumorigenic epithelial cell line. All three human cell lines were provided by the American Type Culture Collection (ATCC). In the present invention, MDA-MB-231 cells were grown in Dulbecco's Modified Eagle's Medium (DMEM) media with 10% FBS, 2 mM glutamine, 100 μg/ml streptomycin in a 37° C. humidified atmosphere with CO2. MCF-7 were cultured in DMEM media supplemented with 2 mM L-glutamine, 100 μg/ml streptomycin, 10% fetal bovine serum, 0.04 UI/ml insulin in a humidified atmosphere at 37° C. containing 5% CO2. MCF10A cells were maintained in DMEM containing 5% horse serum, 2 mM L-glutamine, 20 μg/ml gentamycin, 20 ng/ml epidermal growth factor, 100 ng/ml cholera toxin, 0.25 UI/ml insulin and 0.5 μg/ml hydrocortisone held at 37° C. with 5% CO2.
# (§2) Antrocin was dissolved in DMSO at a concentration of 10 mM and was stored in a dark-colored bottle at −20° C. as a stock solution. The stock was diluted to the required concentration with serum-free medium immediately before use. […]
# (§3) Briefly, three breast cancer cells (MDA-MB-231, MCF-7 & MCF-10A) were seeded into 96-well plates in growth medium at 3000 cells/well for 24 h. […] Optical densities were read on a microplate reader (Molecular Devices, Sunnyvale, Calif.) at 562 nm.
# [2] = tested on: MDA-MB-231 cells; test: Cell morphology studies by phase microscopy; format: cell-based, human; conditions: 48 hr incubation, various concentration, phase-contrast microscope (FIG. 4)
# Method: After treatment with different dose of antrocin for 48 hr, the MDA-MB-231 cells, cultured on glass coverslips, were washed three times with PBS, fixed with 3% paraformaldehyde for 10 min at room temperature, and then washed in PBS again, and the morphological changes were observed. Cell morphology was then observed by phase microscopy.
# [3] = tested on: normal foreskins fibroblast HS68 cells; test: SRB assay, normal HS68 cells; format: cell-based, human; conditions: SRB assay (FIG. 2)
# Method: (§4) Briefly, three breast cancer cells (MDA-MB-231, MCF-7 & MCF-10A) were seeded into 96-well plates in growth medium at 3000 cells/well for 24 h. Then, the cells were treated with antrocin at various concentrations (0, 0.5, 1, 3, 5 and 10 μM) for various periods of time. After the exposure period, the cells were fixed with TCA for 1 hour and stained with 100 μL of 0.4% (w/v) SRB for 10 minutes at room temperature. The bound dye was solubilized in 20 mM Tris base (100 μL/well) for 5 minutes on a shaker. Optical densities were read on a microplate reader (Molecular Devices, Sunnyvale, Calif.) at 562 nm.
# (§5) The anti-proliferative effects of antrocin were assessed on human cancer cell lines, using the SRB assay, with normal foreskins fibroblast HS68 cells and non-tumorgenic breast epithelial MCF-10A cells as controls.
# [4] = tested on: human cancer cell lines (HT-29, HCT116, Huh7, A549, MCF7, MDA-MB-231); test: SRB anti-proliferative assay on human cancer cell lines; format: cell-based
# Method: Antrocin was dissolved in DMSO at a concentration of 10 mM and was stored in a dark-colored bottle at −20° C. as a stock solution. The stock was diluted to the required concentration with serum-free medium immediately before use. Before treatment with antrocin, the medium was removed when cells were about 70% confluent, the cells were starved overnight in serum-free medium and then exposed to antrocin at different concentrations (0-10 μM) and for different periods of time (0-48 h).
# as §4, §5
# [5] = tested on: non-tumorgenic breast epithelial MCF-10A cells; test: SRB assay, non-tumorgenic MCF-10A cells; format: cell-based, human; conditions: SRB assay (FIG. 2)
# Method: as §1, §2, §3
# [6] = tested on: MCF-7 human breast carcinoma cells; test: SRB cytotoxicity assay, MCF-7; format: cell-based
# Method: as §1, §2, §3
# [7] = tested on: MDA-MB-231 cells; test: Cell cycle analysis by PI flow cytometry; format: cell-based, human; conditions: 48 hr, MDA-MB-231 (FIG. 5)
# Method: A total of 2×10^5 MDA-MB-231 cells/dish were seeded onto each 60 mm dish and incubated for 24 h. Various concentration of antrocin were added to the culture media, and the cells were incubated for an additional 48 hr. Cells were harvested and fixed in cold 75% ethanol at 4° C. for 16 h and incubated with 20 μg/ml RNase A at 37° C. for 30 min and then with 40 μg/ml propidium iodide (PI) at 4° C. for 30 min. Samples were immediately analyzed with a FACSCalibur flow cytometer (Becton, Dickinson and Co., San Jose, Calif). Approximately 10,000 counts were made for each sample. The percentage distributions of apoptotic cells were calculated by CellQuest™ software (Becton, Dickinson and Co., San Jose, Calif.).
structure (smiles),measurement,setting,value
C=C1CCC2C(C)(C)CCCC23C(=O)OCC13 (centres unmarked) [antrocin],cell growth inhibition compared with doxorubicin or cisplatin,"[1]; MDA-MB-231, 48 hr treatment, same dosage (FIG. 3)",more potent than doxorubicin or cisplatin
same,MDA-MB-231 cell growth,[1]; antrocin concentration of 0.5 μM,significantly inhibited
same,morphological alterations,[2],"cell shrinkage, membrane blebbing, apoptotic body formation"
same,antiproliferative effect on HS68 cells,[3],no antiproliferative effect
same,inhibition activity to cancer cell lines,"[4]; HT-29, HCT116, Huh7, A549, MCF7, MDA-MB-231",high inhibition activity
same,growth of cancer cells,"[4]; SRB assay, all cancer cells tested (FIG. 1)",inhibited in a concentration-dependent manner
same,antiproliferative effect / growth inhibition on MCF-10A cells,[5],no antiproliferative effect
same,antiproliferative effect / growth inhibition on MCF-10A cells,[5]; listed as Antrocin,no significant inhibition
same,"cell growth inhibition, MDA-MB-231 compared with MCF-7",[6],more effective in MDA-MB-231 cells in comparison with MCF-7
same,progression to apoptosis (apoptotic cells),[7]; 10 μM antrocin,58.3%
same,cell cycle distribution,[7]; different dose,accumulated progressively in subG1 phase
